Patent US20250115581A1, “SUBSTITUTED PIPERIDINES AS CK1A DEGRADERS” (Monte Rosa Therapeutics, Inc., priority 2022, published 2025)

What was measured:
[1] = biological target: CRBN/DDB1 (Homo sapiens, UniProt Q96SW2); assay: HTRF binding assay (displacement of Cy5-thalidomide probe from CRBN/DDB1); details: CRBN/DDB1 2.5 nM, Cy5-Thalidomide 100 nM, 30 min; geometric mean; read-out: HTRF_Thali_Disp_DR_geo_IC50
Procedure, shortened: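 HTRF displacement of Cy5-thalidomide probe (100 nM) from His-tagged CRBN/DDB1 (2.5 nM) with anti-His terbium cryptate, in HEPES/NaCl/TCEP/EDTA/Tween20 buffer; 10-point 1:3 series, 30 min at ambient temperature. 665/620 nm ratio fitted 4-parameter logistic for IC50; Ki via Cheng-Prusoff.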

[2] = system: LS180; assay: Growth inhibition, CyQUANT Direct Cell Proliferation Assay, LS180; format: cell-based; details: Homo sapiens; LS180 cells, 120 to 168 hours
Description: (§1) SKCO1, LS180, and LS174T cell lines were purchased from ATCC. CW2 cell line was purchased from Riken. GP2D cell line was purchased from Sigma/ECACC. All cell lines were cultured in manufacturer's recommended media at 37° C., 5% CO2. Briefly, cells were suspended in 200 μL of media and seeded at 300 to 1,800 cells per well in tissue culture treated 96-well plates with black walls and clear bottom. Plates were incubated overnight and initial (TO) read was performed the following day using CyQUANT Direct Cell Proliferation Assay Kit (Thermo Fisher Scientific) according to manufacturer's protocol. All compounds were solubilized in DMSO and prepared at 3-fold serial dilution, using 9 points starting at 30 μM as highest concentration, administered to cells and incubated for 120 to 168 hours, at which point CyQUANT assay measurement was performed using Acumen Cellista instrument (Ex/Em 480/520 nm). Media-only wells were used as blank, and 0.3% DMSO was used as DMSO-treated cell control. Growth inhibition (percent response) was calculated using the following formula in Excel: “=if ([Compound treated Day N]>[Untreated Day 0, AVG], ([Compound treated Day N]− [Untreated Day 0, AVG])/([Untreated Day N]−[Untreated Day 0, AVG])*100, ([Compound Treated Day N]−[Untreated Day 0, AVG])/([Untreated Day 0, AVG])*100)”. GI50 is the response corresponding to the 50% of untreated control.
(§2) GI50 data are reported in Tables 4a, 4b, 4c, 4d, and 4e for compounds in Table 1. In Tables 4a, 4b, 4c, 4d, and 4e below, According to the code, A represents a GI50 value of ≤0.1 μM, B represents a GI50 value >0.1 μM and ≤1 μM, C represents an GI50 value >1 μM.

[3] = system: LS174T; assay: Growth inhibition, CyQUANT Direct Cell Proliferation Assay, LS174T; format: cell-based; details: Homo sapiens; LS174T cells, 120 to 168 hours
Description: as §1, §2

[4] = Mouse oral PK at 10 mg/kg; format: in vivo, Male BALB/c mice; details: male, BALB/c, plasma
Description: Male BALB/c mice were fasted overnight and administered a discrete, oral (PO) dose of Compound 107 or Compound 125 at 10 mg/kg.
Blood samples were collected serially from three animals/time-point following PO administration of the test compounds to the mice and placed in tubes containing K2EDTA. The blood samples were centrifuged, and the aliquots of the resulting plasma stored frozen at −60 to −90° C.
The plasma samples were analyzed by LC-MS/MS to determine concentrations of the test compounds. The in-life portion of the study and the bioanalysis of plasma samples was conducted at Wuxi (China).
The pharmacokinetic parameters for the tested compounds were calculated by non-compartmental analysis using Phoenix WinNonlin software.

CRBN/DDB1, sequence (Q96SW2 whole entry): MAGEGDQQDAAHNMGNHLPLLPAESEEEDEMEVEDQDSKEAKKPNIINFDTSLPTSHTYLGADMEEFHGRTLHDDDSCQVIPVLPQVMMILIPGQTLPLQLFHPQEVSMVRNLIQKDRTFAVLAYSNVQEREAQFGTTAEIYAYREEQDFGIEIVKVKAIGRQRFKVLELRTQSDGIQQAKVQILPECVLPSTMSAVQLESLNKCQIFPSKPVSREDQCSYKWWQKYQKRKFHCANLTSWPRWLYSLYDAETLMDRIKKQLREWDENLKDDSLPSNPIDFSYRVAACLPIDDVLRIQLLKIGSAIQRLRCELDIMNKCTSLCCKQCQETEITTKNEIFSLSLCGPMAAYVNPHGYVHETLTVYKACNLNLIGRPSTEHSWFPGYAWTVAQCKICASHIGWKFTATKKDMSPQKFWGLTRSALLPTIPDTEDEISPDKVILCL
CRBN/DDB1, sequence (Q16531 whole entry partner): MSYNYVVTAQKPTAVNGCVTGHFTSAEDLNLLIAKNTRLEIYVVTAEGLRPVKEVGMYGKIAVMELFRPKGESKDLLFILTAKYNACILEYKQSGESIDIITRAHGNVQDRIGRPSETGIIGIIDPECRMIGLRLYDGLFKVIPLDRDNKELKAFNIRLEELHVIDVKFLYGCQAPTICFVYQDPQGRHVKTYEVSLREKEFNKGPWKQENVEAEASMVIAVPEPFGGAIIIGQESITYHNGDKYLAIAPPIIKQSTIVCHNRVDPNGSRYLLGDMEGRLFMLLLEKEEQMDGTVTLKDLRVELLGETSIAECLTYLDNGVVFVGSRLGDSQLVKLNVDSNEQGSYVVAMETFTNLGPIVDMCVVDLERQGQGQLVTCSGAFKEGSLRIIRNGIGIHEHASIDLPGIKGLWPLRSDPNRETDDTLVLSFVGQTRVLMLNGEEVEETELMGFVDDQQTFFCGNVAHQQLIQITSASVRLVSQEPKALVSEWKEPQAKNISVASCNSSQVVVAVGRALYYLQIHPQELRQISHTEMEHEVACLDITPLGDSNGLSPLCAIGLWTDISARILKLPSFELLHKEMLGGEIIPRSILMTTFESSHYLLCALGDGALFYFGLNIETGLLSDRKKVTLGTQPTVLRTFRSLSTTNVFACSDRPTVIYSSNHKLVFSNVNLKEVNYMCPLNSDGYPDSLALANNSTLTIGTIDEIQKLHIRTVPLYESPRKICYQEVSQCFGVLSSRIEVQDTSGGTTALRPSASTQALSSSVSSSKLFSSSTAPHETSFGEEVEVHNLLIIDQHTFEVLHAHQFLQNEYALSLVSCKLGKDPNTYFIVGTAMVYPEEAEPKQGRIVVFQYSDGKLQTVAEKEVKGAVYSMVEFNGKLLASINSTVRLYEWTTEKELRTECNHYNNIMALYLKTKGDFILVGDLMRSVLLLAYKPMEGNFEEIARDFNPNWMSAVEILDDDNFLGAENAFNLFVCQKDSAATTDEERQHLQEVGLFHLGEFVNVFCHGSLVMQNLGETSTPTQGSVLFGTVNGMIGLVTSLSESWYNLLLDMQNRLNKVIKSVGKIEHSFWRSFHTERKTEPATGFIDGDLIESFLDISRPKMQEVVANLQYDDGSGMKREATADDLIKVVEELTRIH

Row | IC50 [1] [nM] | Tmax [4] [h] | AUC ([4]; Mean ± SD) [ng·h/mL] | AUC(0-t) ([4]; Mean ± SD) [ng·h/mL] | Cmax ([4]; Mean ± SD) [ng/mL] | half-life ([4]; Mean ± SD) [h] | SMILES | GI50 [2] [nM] | GI50 [3] [nM]
1 | 100 to 1000 |  |  |  |  |  | O=C1CCC(N2Cc3cc(N4CCN(c5ccccc5)C4=O)ccc3C2=O)C(=O)N1 (centres unmarked) [Compound 101, 3-(1-oxo-5-(2-oxo-3-phenylimidazolidin-1-yl)isoindolin-2-yl)piperidine-2,6-dione] | > 1000 | > 1000
2 | 100 to 1000 | 1 | 1860 ± 495 | 1790 ± 504 | 717 ± 167 |  | C[C@@H]1CN(c2ccc3c(c2)CN(C2CCC(=O)NC2=O)C3=O)C(=O)N1c1ccc(C2CC2)cc1 (stereo partly drawn) [Compound 125, 3-(5-((R)-3-(4-cyclopropylphenyl)-4-methyl-2-oxoimidazolidin-1-yl)-1-oxoisoindolin-2-yl)piperidine-2,6-dione] | 100 to 1000 | ≤ 100
3 | 100 to 1000 | 1 | 5880 ± 1600 | 5590 ± 1830 | 1520 ± 262 | 2.53 ± 0.37 | C[C@@H]1CN(c2ccc3c(c2)CN(C2CCC(=O)NC2=O)C3=O)C(=O)N1c1ccccc1 (stereo partly drawn) [Compound 107, 3-(5-((R)-4-methyl-2-oxo-3-phenylimidazolidin-1-yl)-1-oxoisoindolin-2-yl)piperidine-2,6-dione] |  | > 1000
